Experimental data reported in US10407445B2, “Hepatitis C virus inhibitors” (ENANTA PHARMACEUTICALS, INC., priority 2013, dated 2019).

Legend:
[1] = test system: GT2a-6a-HK6a replicon; test: Stable replicon assay, comparison to daclatasvir, GT2a-6a-HK6a; assay type: cell-based; details: Hepatitis C virus
Text: The plasmid pSG-hRlucNeo-JFH1 was generated from pSG-Neo-JFH1 (Kato et al. 2003, Gastroentrology 125:1808-1817). A fragment containing the JFH-1 5′ NTR-hRluc-Neo gene and two unique restriction sites (AgeI and PmeI) was synthesized (Integrated DNA Technologies, Coralville, Iowa). The resulting plasmid was digested with AgeI and PmeI and the excised fragment (5′NTR-hRluc-Neo) was ligated into pSG-Neo-JFH1 digested with the same enzymes to generate pSG-hRlucNeo-JFH1. To allow expression of heterologous NS5A sequences, an NS5A shuttle vector was generated from pSG-Neo-JFH1, in which the entire coding sequence of NS5A plus the first eight codons of NS5B were replaced with an AfeI restriction site. This was done by Infusion cloning (Clontech, Mountain View, Calif.) from two PCR products that were generated using pSG-Neo-JFH1 as a template and the following primer pairs:
To express GT6a NS5A chimeric sequences a JFH1-based N-terminal NS5A (NS5A residues 2-107) shuttle vector was constructed by Infusion cloning from two PCR products that were generated using pSG-Neo-JFH1 as a template and the following primers: […]
Purified PCR products were inserted into an NsiI/SnaBI digested pSG-Neo-JFH1 vector by Infusion cloning following the manufacturer's instructions to generate pSG-Neo-JFH1-Nterm_5Ashuttle. […]

[2] = test system: HCV genotype 1a replicon, NS5A K24G; test: Transient replication assay, GT1a NS5A K24G; assay type: cell-based; details: Hepatitis C virus
[3] = test system: HCV genotype 1a replicon, NS5A L31M; test: Transient replication assay, GT1a NS5A L31M; assay type: cell-based; details: Hepatitis C virus
[4] = test system: HCV genotype 1a replicon, NS5A Q30R H58D; test: Transient replication assay, GT1a NS5A Q30R H58D; assay type: cell-based; details: Hepatitis C virus
[5] = test system: HCV genotype 1b replicon Huh7-lunet cells; test: Resistance barrier analysis in HCV genotype 1b replicon cells (crystal violet staining); assay type: cell-based, Hepatitis C virus; details: 2×EC50, 3 weeks in the presence of G418
Description: Stable HCV genotype 1b replicon Huh7-lunet cells were plated in 100 mm cell culture dishes (1.5×10^5 and 3×10^5 cells/dish for DMSO control and compound treated cells, respectively) and incubated for 24 hr (37° C., 5% CO2) prior to compound addition. Compounds (solubilized in DMSO) were prepared in complete media (0.5% DMSO final) and added to cells. Cells were maintained in the presence of compound (or DMSO) and G418 (500 μg/mL) for 3 weeks with media replacement two times per week. Cells were then fixed (4% paraformaldehyde, 30 min at room temperature) and stained (0.5% crystal violet/25% methanol, 20 min room temperature) to allow visualization of surviving cells. Plates were then washed with water to remove excess stain and left to air dry overnight prior to imaging (BioRad Gel Doc XR+Molecular Imager).
FIG. 1 illustrates comparison of a compound of the invention to daclatasvir in a test that provides a qualitative indication of the occurrence of resistance. […] The control plate, with DMSO alone (no compound 16 or daclatasvir), is almost completely opaque.

SMILES	EC50 [1]	EC50 [2]	EC50 [3]	EC50 [4]	surviving replicon cells (crystal violet staining) [5]
COC(=O)N[C@H](C(=O)N1C[C@]2(CCCOC2)C[C@H]1c1ncc(-c2ccc(-c3ccc4c(ccc5nc([C@@H]6C[C@@H]7CCC[C@@H]7N6C(=O)[C@@H](NC(=O)OC)C(C)C)[nH]c54)c3)cc2)[nH]1)C(C)C [Compound 16]	0.002 nM	0.0021 nM	0.0106 nM	2.8 nM	almost entirely prevented replicon cell survival
COC(=O)N[C@H](C(=O)N1CCC[C@H]1c1nc(-c2ccc(-c3ccc(-c4c[nH]c([C@@H]5CCCN5C(=O)[C@@H](NC(=O)OC)C(C)C)n4)cc3)cc2)c[nH]1)C(C)C [Daclatasvir, reference compound]	0.005 nM	0.02 nM	0.67 nM	838 nM	
